From patent US8222414B2, “Indole compounds as an inhibitor of cellular necrosis” (LG Life Sciences Ltd., priority 2007, dated 2012)

What follows are compounds tested on primary hepatocytes isolated from rats (assay: Cell protective effects against doxorubicin in hepatocytes (WST-1 cell viability)). Details: Hepatocyte; primary rat hepatocytes pretreated with compound for 30 min, then doxorubicin; viability by WST-1 after 24-48 h.
Format: cell-based
Method: Various endogenous/exogenous attacks on the cells trigger the mechanisms of cell death which is broadly classified into two types, i.e. apoptosis or necrosis. Using these cell death mechanisms, in the present experimental example, primacy hepatocytes isolated from rats were treated with drugs which were clinically shown to result in serious side-effects of hepatocyte toxicity or various chemicals which derive cell death, and the compounds synthesized in the Examples were estimated for their hepatocyte protective effects, after 24-48 h. The substances used to derive hepatocyte death include CCl4, ActD, H2O2, doxorubicin, anti-Fas Ab/Actinomycin D, acetaminophen, EtOH, CdCl2, palmitate, stearate, cyclophosphamide, terfenadine, diclofenac, simvastatin, and adefovir. Primary hepatocytes were isolated using the method of Seglen P O (Experimental Cell Research 74 (1972) pp 450-454). Briefly, hepatocytes were isolated according to the two-step collagenase perfusion method, and dead cells were removed by low speed (500 rpm) centrifugation for 10 min using percoll gradient (Kreamer B L etc, In Vitro Cellular & Developmental Biology 22 (1986) pp 201-211). During this step, the viability of cells was maintained 90% or above. The cells were suspended in HepatoZYME media (Gibco BRL), and the number of cells was counted. 1.5×10^4 cells in 100 μl were placed into the collagen-coated 96-well plate (BD biocoat), and adhered on the bottom for 3-4 h.
In order to assess the hepatocyte protective effect, above adhered cells were pretreated with the Example compounds for 30 min. At this time, the concentration of the Example compounds were serially diluted by 2-fold or 3-fold over 5 steps starting from 30 uM, 10 uM or 1 uM depending on the experiments, and the final concentration of DMSO was adjusted to 0.2%. 30 min after the treatment by compounds, cells were treated by the substances deriving hepatocyte death or hepatotoxic drugs at the concentrations indicated in Table 1. After 24-48 h, the viability of cells was determined to estimate the hepatocyte protective effects. The viability of cells was determined using WST-1 (MK-400, […]) method by the absorbance at 440 nm. Hepatocyte protective effects of the Example compounds were represented by “EC50” which was calculated from measured values. “EC50” herein means the concentration of the compound at which 50% of maximum protective effect is observed in the experiment.

Q: How did the EC50 turn out when O=C(O)C[C@H]1CSC(c2cc3cc(Oc4ccccc4)cc(NC4CCCC4)c3[nH]2)=N1 [Example 50, [(S)-2-(5-phenoxy-7-cyclopentylamino-1H-indol-2-yl)-4,5-dihydro-thiazol-4-yl]-acetic acid] was run?
A: Its EC50 is 250 nM.

Q: How did the EC50 turn out when OC[C@@H]1CSC(c2cc3cccc(NC4CCOCC4)c3[nH]2)=N1 [Example 51, [(R)-2-(7-(tetrahydropyran-4-yl)amino-1H-indol-2-yl)-4,5-dihydro-thiazol-4-yl]-methanol] was run?
A: The EC50 was 600 nM.

Q: For OC[C@@H]1CSC(c2cc3cccc(NC4CCOC4)c3[nH]2)=N1 (stereo partly drawn) [Example 52, [(R)-2-(7-(tetrahydrofuran-3-yl)amino-1H-indol-2-yl)-4,5-dihydro-thiazol-4-yl]-methanol], which EC50 is on record?
A: Its EC50 is 750 nM.

Q: How did the EC50 turn out when OC[C@@H]1CSC(c2cc3cc(Oc4cccnc4)cc(NC4CCCC4)c3[nH]2)=N1 [Example 61, [(R)-2-(5-(pyridin-3-yl)oxy-7-cyclopentylamino-1H-indol-2-yl)-4,5-dihydro-thiazol-4-yl]-methanol] was run?
A: Its EC50 is 780 nM.

Q: With OC[C@@H]1CSC(c2cc3cc(Oc4cccnc4)cc(NC4CCOCC4)c3[nH]2)=N1 [Example 62, [(R)-2-(5-(pyridin-3-yl)oxy-7-(tetrahydropyran-4-yl)amino-1H-indol-2-yl)-4,5-dihydro-thiazol-4-yl]-methanol] as the compound, how does the EC50 read?
A: Its EC50 is 3770 nM.

Q: With O=C1c2ccccc2C(=O)N1Cc1cc(NC2CCCC2)c2[nH]c(C3=N[C@H](CO)CS3)cc2c1 [Example 64, [(R)-2-(5-(isoindol-1,3-dion-2-yl)methyl-7-cyclopentylamino-1H-indol-2-yl)-4,5-dihydro-thiazol-4-yl]-methanol] as the compound, how does the EC50 read?
A: The EC50 was 540 nM.

Q: How did the EC50 turn out when O=C(O)C[C@@H]1CSC(c2cc3cc(Br)cc(NC4CCCC4)c3[nH]2)=N1 [Example 68, [(R)-2-(5-bromo-7-cyclopentylamino-1H-indol-2-yl)-4,5-dihydro-thiazol-4-yl]-acetic acid] was run?
A: The EC50 was 490 nM.

Q: How did the EC50 turn out when O=C(O)C[C@@H]1CSC(c2cc3cc(F)cc(NC4CCCC4)c3[nH]2)=N1 [Example 71, [(R)-2-(5-fluoro-7-cyclopentylamino-1H-indol-2-yl)-4,5-dihydro-thiazol-4-yl]-acetic acid] was run?
A: Its EC50 is 1100 nM.

Q: For O=C(O)[C@@H]1CSC(c2cc3cccc(NC4CCOCC4)c3[nH]2)=N1 [Example 78, [(R)-2-(7-(tetrahydropyran-4-yl)amino-1H-indol-2-yl)-4,5-dihydro-thiazol-4-yl]-carboxylic acid], which EC50 is on record?
A: The EC50 was 29400 nM.

Q: CCOc1cc(NC2CCCC2)c2[nH]c(C3=N[C@H](CC(=O)O)CS3)cc2c1 [Example 83, [(R)-2-(5-ethoxy-7-cyclopentylamino-1H-indol-2-yl)-4,5-dihydro-thiazol-4-yl]-acetic acid] was tested. Which EC50 did it give?
A: The EC50 was 600 nM.

Q: For CCCOc1cc(NC2CCCC2)c2[nH]c(C3=N[C@H](CC(=O)O)CS3)cc2c1 [Example 84, [(R)-2-(5-propyloxy-7-cyclopentylamino-1H-indol-2-yl)-4,5-dihydro-thiazol-4-yl]-acetic acid], which EC50 is on record?
A: The EC50 was 1600 nM.

Q: Which EC50 does the source give for O=C(O)C[C@@H]1CSC(c2cc3cc(Oc4cccnc4)cc(NC4CCCC4)c3[nH]2)=N1 [Example 88, [(R)-2-(5-(pyridin-3-yl)oxy-7-cyclopentylamino-1H-indol-2-yl)-4,5-dihydro-thiazol-4-yl]-acetic acid] here?
A: The EC50 was 1870 nM.

Q: How did the EC50 turn out when O=C(O)C[C@@H]1CSC(c2cc3cc(Oc4cccnc4)cc(NC4CCOCC4)c3[nH]2)=N1 [Example 90, [(R)-2-(5-(pyridin-3-yl)oxy-7-(tetrahydropyran-4-yl)amino-1H-indol-2-yl)-4,5-dihydro-thiazol-4-yl]-acetic acid] was run?
A: The EC50 was 7920 nM.

Q: For Cc1cc(NC2CCOCC2)c2[nH]c(C3=N[C@H](CC(=O)O)CS3)cc2c1 [Example 93, [(R)-2-(5-methyl-7-(tetrahydropyran-4-yl)amino-1H-indol-2-yl)-4,5-dihydro-thiazol-4-yl]-acetic acid], which EC50 is on record?
A: Its EC50 is 550 nM.

Q: With CS(=O)(=O)c1ccc(Oc2cc(NC3CCCC3)c3[nH]c(C4=N[C@H](CC(=O)O)CS4)cc3c2)cc1 [Example 94, [(R)-2-(5-(4-(methanesulfonyl)phenoxy)-7-cyclopentylamino-1H-indol-2-yl)-4,5-dihydro-thiazol-4-yl]-acetic acid] as the compound, how does the EC50 read?
A: Its EC50 is 28100 nM.

Q: With COC(=O)C[C@@H]1CSC(c2cc3cc(CS(C)(=O)=O)cc(NC4CCCC4)c3[nH]2)=N1 [Example 97, [(R)-2-(5-methanesulfonylmethyl-7-cyclopentylamino-1H-indol-2-yl)-4,5-dihydro-thiazol-4-yl]-acetic acid methyl ester] as the compound, how does the EC50 read?
A: Its EC50 is 4100 nM.

Q: For O=C(O)CC[C@@H]1CSC(c2cc3cc(Cl)cc(NC4CCCC4)c3[nH]2)=N1 [Example 101, 3-[(R)-2-(5-chloro-7-cyclopentylamino-1H-indol-2-yl)-4,5-dihydro-thiazol-4-yl]-propionic acid], which EC50 is on record?
A: Its EC50 is 1000 to 10000 nM.

Q: How did the EC50 turn out when CCOC(=O)CC[C@@H]1CSC(c2cc3cc(F)cc(NC4CCCC4)c3[nH]2)=N1 [Example 108, 3-[(R)-2-(5-fluoro-7-cyclopentylamino-1H-indol-2-yl)-4,5-dihydro-thiazol-4-yl]-propionic acid ethyl ester] was run?
A: Its EC50 is less than 500 nM.

Q: Which EC50 does the source give for O=C(O)CC[C@@H]1CSC(c2cc3cc(F)cc(NC4CCCC4)c3[nH]2)=N1 [Example 109, 3-[(R)-2-(5-fluoro-7-cyclopentylamino-1H-indol-2-yl)-4,5-dihydro-thiazol-4-yl]-propionic acid] here?
A: Its EC50 is 610 nM.

Q: With CCOc1cc(NC2CCCC2)c2[nH]c(C3=N[C@H](CCC(=O)O)CS3)cc2c1 [Example 115, 3-[(R)-2-(5-ethoxy-7-cyclopentylamino-1H-indol-2-yl)-4,5-dihydro-thiazol-4-yl]-propionic acid] as the compound, how does the EC50 read?
A: Its EC50 is less than 1000 nM.

Q: Which EC50 does the source give for O=C(O)CC[C@@H]1CSC(c2cc3cc(OC(F)(F)F)cc(NC4CCCC4)c3[nH]2)=N1 [Example 117, 3-[(R)-2-(5-trifluoromethoxy-7-cyclopentylamino-1H-indol-2-yl)-4,5-dihydro-thiazol-4-yl]-propionic acid] here?
A: Its EC50 is less than 500 nM.

Q: With Cc1cc(NC2CCCC2)c2[nH]c(C3=N[C@@H](CC(=O)O)CO3)cc2c1 [Example 119, [(S)-2-(5-methyl-7-cyclopentylamino-1H-indol-2-yl)-4,5-dihydro-oxazol-4-yl]-acetic acid] as the compound, how does the EC50 read?
A: The EC50 was 170 nM.

Q: Cc1cc(NC2CCOCC2)c2[nH]c(C3=N[C@@H](CC(=O)O)CO3)cc2c1 [Example 120, [(S)-2-(5-methyl-7-(tetrahydropyran-4-yl)amino-1H-indol-2-yl)-4,5-dihydro-oxazol-4-yl]-acetic acid] was tested. Which EC50 did it give?
A: Its EC50 is 1120 nM.

Q: O=C(O)C[C@H]1COC(c2cc3cc(Cl)cc(NC4CCCC4)c3[nH]2)=N1 [Example 121, [(S)-2-(5-chloro-7-cyclopentylamino-1H-indol-2-yl)-4,5-dihydro-oxazol-4-yl]-acetic acid] was tested. Which EC50 did it give?
A: The EC50 was 470 nM.

Q: How did the EC50 turn out when O=C(O)C[C@H]1COC(c2cc3cc(Cl)cc(NCC4CCOCC4)c3[nH]2)=N1 [Example 122, [(S)-2-(5-chloro-7-(tetrahydropyran-4-yl)methylamino-1H-indol-2-yl)-4,5-dihydro-oxazol-4-yl]-acetic acid] was run?
A: The EC50 was 960 nM.

Q: Which EC50 does the source give for Cc1cc(NC2CCCC2)c2[nH]c(-c3ncc(CO)s3)cc2c1 [Example 130, [2-(5-Methyl-7-cyclopentylamino-1H-indol-2-yl)-thiazol-5-yl]-methanol] here?
A: The EC50 was 100 nM.

Q: Which EC50 does the source give for OCc1csc(-c2cc3cccc(NC4CCCC4)c3[nH]2)n1 [Example 133, [2-(7-Cyclopentylamino-1H-indol-2-yl)-thiazol-4-yl]-methanol] here?
A: Its EC50 is 310 nM.

Q: Which EC50 does the source give for COC(=O)c1csc(-c2cc3cccc(NC4CCCC4)c3[nH]2)n1 [Example 134, [2-(7-Cyclopentylamino-1H-indol-2-yl)-thiazol-4-yl]-carboxylic acid methyl ester] here?
A: Its EC50 is 510 nM.

Q: With Cc1cc(NC2CCC(=O)CC2)c2[nH]c(C3=N[C@H](CC(=O)O)CS3)cc2c1 [Example 135, {(R)-2-[5-methyl-7-(4-oxo-cyclohexylamino)-1H-indol-2-yl]-4,5-dihydro-thiazol-4-yl}acetic acid] as the compound, how does the EC50 read?
A: Its EC50 is 1260 nM.

Q: For c1cc(NC2CCCC2)c2[nH]c(C3=N[C@H](CN4CCCC4)CS3)cc2c1 [Example 158, Cyclopentyl-[2-((R)-4-pyrrolidin-1-ylmethyl-4,5-dihydro-thiazol-2-yl)-1H-indol-7-yl]-amine], which EC50 is on record?
A: Its EC50 is 910 nM.

Same assay, conditions: primary rat hepatocytes pretreated with compound for 30 min, then doxorubicin; viability by WST-1 after 24-48 h

Q: Which EC50 does the source give for CCOc1cc(NC2CCCC2)c2[nH]c(C3=N[C@@H](CCO)CS3)cc2c1 [Example 48, [(S)-2-(5-ethoxy-7-cyclopentylamino-1H-indol-2-yl)-4,5-dihydro-thiazol-4-yl]-ethanol] here?
A: The EC50 was 200 nM.

Q: With OCC[C@@H]1CSC(c2cc3cc(Cl)cc(NC4CCOCC4)c3[nH]2)=N1 [Example 67, [(R)-2-(5-chloro-7-(tetrahydropyran-4-yl)amino-1H-indol-2-yl)-4,5-dihydro-thiazol-4-yl]-ethanol] as the compound, how does the EC50 read?
A: Its EC50 is greater than 1000 nM.
